{"source": "ChEMBL document CHEMBL1147592", "about": "“Novel quinazoline-quinoline alkaloids with cytotoxic and DNA topoisomerase II inhibitory activities” (Bioorg Med Chem Lett, 2004)", "key": {"[1]": {"test_system": "P388", "assay": "Cytotoxic activity against mouse leukemia P-388 cells", "format": "functional, cell-based"}, "[2]": {"target": "DNA topoisomerase II (Homo sapiens, UniProt P11388+Q02880)", "assay": "Inhibitory activity against human DNA topoisomerase II", "format": "protein assay"}}}
{"smiles": "O=c1c2ccccc2nc2n1C(O)c1cc3ccccc3nc1-2", "note": "(stereo not drawn)", "values": [{"measurement": "IC50", "setting": "[1]", "value": 5, "unit": "µg/mL"}, {"measurement": "IC50", "setting": "[2]", "value": 25, "unit": "µM"}]}
{"smiles": "COC1c2cc3ccccc3nc2-c2nc3ccccc3c(=O)n21", "note": "(stereo not drawn)", "values": [{"measurement": "IC50", "setting": "[1]", "value": 9, "unit": "µg/mL"}, {"measurement": "IC50", "setting": "[2]", "value": 25, "unit": "µM"}]}
{"smiles": "O=C(c1cnc2ccccc2c1)c1nc(O)c2ccccc2n1", "values": [{"measurement": "IC50", "setting": "[1]", "value": 20, "unit": "µg/mL"}, {"measurement": "IC50", "setting": "[2]", "value": 25, "unit": "µM"}]}
{"smiles": "CC(=O)NC1c2cc3ccccc3nc2-c2nc3ccccc3c(=O)n21", "note": "(stereo not drawn)", "values": [{"measurement": "IC50", "setting": "[1]", "value": 33, "unit": "µg/mL"}, {"measurement": "IC50", "setting": "[2]", "value": 25, "unit": "µM"}]}
{"smiles": "Oc1nc(-c2cnc3ccccc3c2)nc2ccccc12", "values": [{"measurement": "IC50", "setting": "[1]", "value": 40, "unit": "µg/mL"}, {"measurement": "IC50", "setting": "[2]", "value": 25, "unit": "µM"}]}
{"smiles": "CC(C(C)N1CC(=O)NC(=O)C1)N1CC(=O)NC(=O)C1", "note": "(stereo not drawn) [ICRF-193]", "values": [{"measurement": "IC50", "setting": "[2]", "value": 13.9, "unit": "µM"}]}
{"smiles": "O=c1c2ccccc2nc2n1Cc1cc3ccccc3nc1-2", "note": "[LUOTONIN A]", "values": [{"measurement": "IC50", "setting": "[1]", "value": 1.8, "unit": "µg/mL"}, {"measurement": "IC50", "setting": "[2]", "value": 28.5, "unit": "µM"}]}
